Assay results published in patent US6960470B1 (priority 1998, dated 2005).

How the values were obtained:
[1] = tested on: GABAA receptor; format: cell-based
[2] = tested on: AMPA (glutamate subtype) receptor; experiment: Whole-cell patch-clamp, evoked inward synaptic current at -60 mV (glutamate currents); format: cell-based; details: 2 μM NBQX; whole-cell patch-clamped neurons
Experimental: Data were prepared as graphs of the effect of agents on the GABAA receptor-mediated transmission in the mutant and wt cells using whole-cell patch-clamping. The data included the evoked synaptic response ([…]) from whole-cell patch-clamped neurons. […] The evoked synaptic responses (averaged up to 15 each) recorded at holding potentials of 0 mV and −60 mV with the stimulating electrode placed in stratum radiatum at site 1, ˜50μm from the recording electrode at site 2, ˜250 μm from the recording electrode and at site two with the stimulus intensity increased ˜3-fold. Graphs were prepared of examples of averaged (up to 15 each) traces from patch-clamp whole-cell recordings-in wt and Δ9 mutation at […] (glutamate currents) and at 0 mV (GABAA currents). The graphs included peak amplitude of response ratios (measured at holding potentials of −60 mV and 0 mV, respectively) from cells in individual slices (n=9 slices each).

| Molecule | block of outward current (di-synaptic inhibition) [1] | block of inward current at holding potential of −60 mV [2] | block of outward current recorded at 0 mV [1] |
| --- | --- | --- | --- |
| NS(=O)(=O)c1cccc2c1c([N+](=O)[O-])cc1nc(O)c(O)nc12 [NBQX] | blocked some of the outward current | completely blocked | – |
| picrotoxin | – | – | completely blocked |
